Test results as given in ChEMBL document CHEMBL1138873, “A novel antiproliferative agent, phenylpyridineylbutenol, isolated from Streptomyces sp” (Bioorg Med Chem Lett, 2006).

Columns and labels:
Type in all cases: functional, cell-based
HeLa = assay: Antiproliferative activity against human HeLa by MTT assay
HepG2 = assay: Antiproliferative activity against human HepG2 by MTT assay
A549 = assay: Antiproliferative activity against human A549 by MTT assay
AGS = assay: Antiproliferative activity against human AGS by MTT assay

IC50 (HeLa): 1380 µM
IC50 (HepG2): 1600 µM
IC50 (A549): 1130 µM
IC50 (AGS): 1980 µM
Structure (SMILES): OC/C=C(\Cc1ccccc1)c1ccccn1
